The target in this assay is T1, human norepinephrine transporter (Homo sapiens, UniProt P23975).
T1 construct: isolate and amplify each of the three full-length cDNAs from an appropriate cDNA library; expressed in transfected cells; host or cells: HEK293 cells, stably transfected (pcDNA3.1-type vector); membranes used
As to the kind of experiment: Scintillation proximity assay, [3H]-nisoxetine binding at the norepinephrine transporter.

Here are results for two compounds from patent US7354920B2, “Aryl and heteroaryl morpholine derivatives” (Eli Lilly and Company, priority 2002, dated 2008).

Where a name gives a salt, the structure may show the parent alone. Read-outs that look alike come from different tables or passages of the source.

T1 sequence (P23975 whole entry): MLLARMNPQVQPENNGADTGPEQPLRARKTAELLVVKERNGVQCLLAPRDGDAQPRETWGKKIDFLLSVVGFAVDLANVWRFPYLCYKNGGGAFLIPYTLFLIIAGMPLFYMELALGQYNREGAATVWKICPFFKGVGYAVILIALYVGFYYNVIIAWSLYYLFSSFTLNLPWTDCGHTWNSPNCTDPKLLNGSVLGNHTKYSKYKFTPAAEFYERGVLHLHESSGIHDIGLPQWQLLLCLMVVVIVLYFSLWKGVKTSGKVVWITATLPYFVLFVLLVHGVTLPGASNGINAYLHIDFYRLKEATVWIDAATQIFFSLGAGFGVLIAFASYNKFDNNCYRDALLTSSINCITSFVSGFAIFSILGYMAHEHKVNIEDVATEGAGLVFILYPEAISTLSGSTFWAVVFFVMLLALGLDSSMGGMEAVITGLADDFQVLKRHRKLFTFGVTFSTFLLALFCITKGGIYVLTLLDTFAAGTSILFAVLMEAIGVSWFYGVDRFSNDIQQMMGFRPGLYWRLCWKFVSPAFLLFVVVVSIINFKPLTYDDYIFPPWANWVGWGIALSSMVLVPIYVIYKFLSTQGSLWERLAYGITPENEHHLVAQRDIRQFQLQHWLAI

In the case of `OC(Cc1ccccc1OC(F)(F)F)(c1ccccc1)[C@H]1CNCCO1` (stereo in doubt) [Example 5, (S,R) 1-Morpholin-2-yl-1-phenyl-2-(2-trifluoromethoxy-phenyl)-ethanol hydrochloride], the Ki (scintillation proximity assay, 3H-nisoxetine, HEK-293 membranes, read-out: NET Ki) was found to be 12.4 nM. Consider `COc1ccc(F)cc1CC(O)(c1ccccc1)[C@H]1CNCCO1` (stereo in doubt) [Example 8, (S,R) 2-(5-Fluoro-2-methoxy-phenyl)-1-morpholin-2-yl-1-phenyl-ethanol hydrochloride], for which the Ki is 3.6 nM.
